Patent US10526327B2, “Histone demethylase inhibitors” (CELGENE QUANTICEL RESEARCH, INC., priority 2013, dated 2020)

Molecular target: T1, Jarid1B (Homo sapiens, UniProt Q9UGL1)
T1 construct: purchased BPS Bioscience or custom made by MolecularThroughput 50121
T1 sequence (Q9UGL1 2-751): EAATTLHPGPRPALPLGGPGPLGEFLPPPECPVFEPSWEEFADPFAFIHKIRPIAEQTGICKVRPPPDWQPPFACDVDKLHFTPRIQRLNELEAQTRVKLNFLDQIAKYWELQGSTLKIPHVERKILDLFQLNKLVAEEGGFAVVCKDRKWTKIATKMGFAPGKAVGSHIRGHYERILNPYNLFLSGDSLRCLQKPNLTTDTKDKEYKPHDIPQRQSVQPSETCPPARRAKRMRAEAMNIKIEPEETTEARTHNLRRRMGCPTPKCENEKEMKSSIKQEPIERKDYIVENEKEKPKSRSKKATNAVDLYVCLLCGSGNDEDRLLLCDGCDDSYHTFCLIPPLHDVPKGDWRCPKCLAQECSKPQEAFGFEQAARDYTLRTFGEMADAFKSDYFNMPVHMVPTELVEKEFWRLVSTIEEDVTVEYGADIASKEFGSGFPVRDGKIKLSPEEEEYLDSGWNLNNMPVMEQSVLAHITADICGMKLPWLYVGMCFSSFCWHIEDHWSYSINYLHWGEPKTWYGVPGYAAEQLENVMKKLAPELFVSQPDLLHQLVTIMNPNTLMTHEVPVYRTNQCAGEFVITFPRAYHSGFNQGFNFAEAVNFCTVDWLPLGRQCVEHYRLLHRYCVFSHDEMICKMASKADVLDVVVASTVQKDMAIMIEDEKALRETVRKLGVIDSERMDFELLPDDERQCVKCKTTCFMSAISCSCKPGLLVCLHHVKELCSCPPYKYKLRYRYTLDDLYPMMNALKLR
Assay: Jarid1B in vitro enzyme inhibition assay (TR-FRET)
Format: biochemical
In short: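 Jarid1B (AA 2-751, baculovirus-expressed) at 0.8 nM with 300 nM biotin-H3K4me3 peptide and 2 μM α-ketoglutarate in HEPES pH 7.3 with ascorbate and Fe(II), 30 min at room temperature. Stopped with EDTA; H3K4me1-2 product detected by TR-FRET (665/615 ratio) and IC50 fitted from 11-point dilutions.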

Row | Structure (SMILES) | IC50 [µM]
1 | Oc1nc(Oc2cnn([C@H]3CCCN(Cc4ccccc4)C3)c2)nc2cnccc12 [Example 168, 2-({1-[(3S)-1-benzylpiperidin-3-yl]-1H-pyrazol-4-yl}oxy)pyrido[3,4-d]pyrimidin-4-ol] | ≤ 0.1
2 | Oc1nc(OCc2ccc(C(F)(F)F)cc2)nc2cnccc12 [Example 170, 2-{[4-(trifluoromethyl)phenyl]methoxy}pyrido[3,4-d]pyrimidin-4-ol] | 1 to 10
3 | Oc1nc(OCc2ccccc2Cl)nc2cnccc12 [Example 171, 2-[(2-chlorophenyl)methoxy]pyrido[3,4-d]pyrimidin-4-ol] | 0.1 to 1
4 | Oc1nc(OCc2c(Cl)cccc2Cl)nc2cnccc12 [Example 172, 2-[(2,6-dichlorophenyl)methoxy]pyrido[3,4-d]pyrimidin-4-ol] | 1 to 10
5 | Oc1nc(OCc2cccc(Cl)c2Cl)nc2cnccc12 [Example 173, 2-[(2,3-dichlorophenyl)methoxy]pyrido[3,4-d]pyrimidin-4-ol] | 1 to 10

Next, values leading:

Row | IC50 [µM] | Structure (SMILES)
6 | ≤ 0.1 | Oc1nc(OCCc2ccc(Cl)cc2)nc2cnccc12 [Example 174, 2-[2-(4-chlorophenyl)ethoxy]pyrido[3,4-d]pyrimidin-4-ol]
7 | 1 to 10 | Oc1nc(OCCc2ccc(Cl)c(Cl)c2)nc2cnccc12 [Example 175, 2-[2-(3,4-dichlorophenyl)ethoxy]pyrido[3,4-d]pyrimidin-4-ol]
8 | 0.1 to 1 | Oc1nc(OC(c2ccccc2)C(F)(F)F)nc2cnccc12 (centres unmarked) [Example 176, 2-(2,2,2-trifluoro-1-phenylethoxy)pyrido[3,4-d]pyrimidin-4-ol]
